Assay results from BindingDB's records for patent US10294246 (Merck Patent, 2019).

These compounds were tested against T1, Proteasome subunit beta type-8 (Homo sapiens, UniProt P28062) (assay: Determination of LMP7 Activity).
T1 sequence (P28062 whole entry): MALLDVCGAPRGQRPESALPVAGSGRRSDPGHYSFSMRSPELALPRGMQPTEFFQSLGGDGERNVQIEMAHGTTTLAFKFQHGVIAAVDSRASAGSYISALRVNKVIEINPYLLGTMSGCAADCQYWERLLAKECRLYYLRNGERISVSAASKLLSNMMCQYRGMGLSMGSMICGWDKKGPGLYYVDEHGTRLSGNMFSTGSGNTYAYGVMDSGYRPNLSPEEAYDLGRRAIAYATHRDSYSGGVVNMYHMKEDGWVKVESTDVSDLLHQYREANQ
Protocol: Measurement of LMP7 inhibition is performed in 384 well format based on fluorescence intensity assay.Purified human immunoproteasome (0.25 nM) and serial diluted compounds in DMSO (range of concentrations from 30 μM to […]) or controls are incubated for 20 minutes at 25° C. in assay buffer containing 50 mM Tris pH 7.4, 0.03% SDS, 1 mM EDTA and 1% DMSO. The reaction is initiated by the addition of the fluorogenic peptide substrate, Suc-LLVY-AMC (Bachem 1-1395), at a concentration of 40 μM. After 60 minutes of incubation at 37° C., fluorescence intensity is measured at λex=350 nm and λem=450 nm with a fluorescence reader (Perkin Elmer Envision reader or equivalent).

IC50, < 50 nM:
Cc1ccc(OCCC(=O)N[C@@H](Cc2coc3ccccc23)B(O)O)cc1 [US10294246, Compound No. 7]
CC(=O)Nc1ccc(CC(=O)N[C@@H](Cc2coc3ccccc23)B(O)O)cc1 [US10294246, Compound No. 26]
CC(=O)Nc1cccc(CC(=O)N[C@@H](Cc2coc3ccccc23)B(O)O)c1 [US10294246, Compound No. 32]
CO[C@H](C(=O)N[C@@H](Cc1coc2ccccc12)B(O)O)c1ccccc1 [US10294246, Compound No. 33]
C[C@H](C(=O)N[C@@H](Cc1coc2ccccc12)B(O)O)c1ccccc1 [US10294246, Compound No. 37]
COc1ccc(C(F)(F)C(=O)N[C@@H](Cc2coc3ccccc23)B(O)O)cc1 [US10294246, Compound No. 51]
CCO[C@@H](C(=O)N[C@@H](Cc1coc2ccccc12)B(O)O)c1ccccc1 [US10294246, Compound No. 70]
